According to patent US20050239656A1, “Pyridine compounds or salts thereof and herbicides containing the same” (priority 2002, published 2005):

Experiments:
rice [1] = assay: Test Example 1: foliage treatment, upland pot test; assay type: in vivo, Oryza sativa L.; details: crop, active ingredient 500 g/ha, observed 18th to 23rd day, 0 = non-treated, 100 = complete kill
How it was run: (§1)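 Crops and weeds were sown in upland soil pots and sprayed post-emergence at set leaf stages (soybean 0.1–0.4, wheat 1.3–2.4, rice 1.2–2.6, barnyardgrass 1.3–2.8). Formulated compound was applied in 500 L/ha water with 0.1% spreader. Growth control (0–100%) was rated visually 18–23 days later.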

barnyardgrass [2] = assay: Test Example 2: soil surface treatment, upland pot test; assay type: in vivo, Echinochloa crus-galli L.; details: active ingredient 500 g/ha, observed 20th to 28th day
How it was run: (§2)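 Soil surface treated 1 day post-sowing. Formulation: WP or EC, predetermined a.i., diluted to 1,500 L/ha. Pot size 1/170,000 ha, upland soil. Readout: visual % control, 0 = non-treated, 100 = dead, days 20–28.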

japanese bulrush = assay: Test Example 3: paddy pot test, application under submerged conditions; assay type: in vivo, Scirpus juncoides; details: submerged application at 0.5 leaf stage, visually observed 14 days after application, 0 = non-treated, 100 = complete kill
How it was run: (§3)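 Visual growth-control rating (0 = untreated, 100 = complete kill) 14 days after treatment. The formulated compound, as a diluted wettable powder or emulsifiable concentrate, went into 3–4 cm flood water at a predetermined active-ingredient dose once the weeds reached 0.5 leaf stage (wapato: primary leaf stage).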

corn [3] = assay: Test Example 2: soil surface treatment, upland pot test; assay type: in vivo, Zea mays L.; details: active ingredient 500 g/ha, observed 20th to 28th day
How it was run: as §2

crabgrass [4] = assay: Test Example 1: foliage treatment, upland pot test; assay type: in vivo, Digitaria sanguinalis L.; details: active ingredient 500 g/ha, observed 18th to 23rd day, 0 = non-treated, 100 = complete kill
soybean [5] = assay: Test Example 2: soil surface treatment, upland pot test; assay type: in vivo, Glycine max Merr.; details: active ingredient 500 g/ha, observed 20th to 28th day
How it was run: as §2

prickly sida [6] = assay: as above; assay type: in vivo, Sida spinosa L.; details: active ingredient 500 g/ha, observed 20th to 28th day
How it was run: as §2

velvetleaf [7] = assay: Test Example 1: foliage treatment, upland pot test; assay type: in vivo, Abutilon theophrasti MEDIC.; details: active ingredient 500 g/ha, observed 18th to 23rd day, 0 = non-treated, 100 = complete kill
redroot pigweed [8] = assay: Test Example 1: foliage treatment, upland pot test; assay type: in vivo, Amaranthus retroflexus L.; details: active ingredient 500 g/ha, observed 18th to 23rd day, 0 = non-treated, 100 = complete kill
barnyardgrass [9] = assay: Test Example 3: paddy pot test, application under submerged conditions; assay type: in vivo, Echinochloa crus-galli L.; details: submerged application at 0.5 leaf stage, visually observed 14 days after application, 0 = non-treated, 100 = complete kill
How it was run: as §3

green foxtail [10] = assay: Test Example 2: soil surface treatment, upland pot test; assay type: in vivo, Setaria viridis L.; details: active ingredient 500 g/ha, observed 20th to 28th day
How it was run: as §2

rice (var. Nihonbare) = assay: Test Example 3: paddy pot test, transplanted rice; assay type: in vivo, Oryza sativa L.; details: applied 4th day after transplantation, visually observed 21st day after application, 0 = non-treated, 100 = complete kill
How it was run: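 Rice (var. Nihonbare) at 2 leaf stage transplanted 3 cm deep into puddled paddy soil under 3–4 cm flooding; on day 4 after transplanting, diluted wettable powder or emulsifiable concentrate applied by pipette under submerged conditions at a set active-ingredient dose. Growth scored visually 21 days after application, 0 (untreated) to 100 (complete kill) %.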

soybean [11] = assay: Test Example 1: foliage treatment, upland pot test; assay type: in vivo, Glycine max Merr.; details: crop, active ingredient 500 g/ha, observed 18th to 23rd day, 0 = non-treated, 100 = complete kill
How it was run: as §1

prickly sida [12] = assay: Test Example 1: foliage treatment, upland pot test; assay type: in vivo, Sida spinosa L.; details: active ingredient 500 g/ha, observed 18th to 23rd day, 0 = non-treated, 100 = complete kill
green foxtail [13] = assay: Test Example 1: foliage treatment, upland pot test; assay type: in vivo, Setaria viridis L.; details: active ingredient 500 g/ha, observed 18th to 23rd day, 0 = non-treated, 100 = complete kill
japanese ribbon wapato = assay: Test Example 3: paddy pot test, application under submerged conditions; assay type: in vivo, Sagittaria pygniaea; details: submerged application at primary leaf stage, visually observed 14 days after application, 0 = non-treated, 100 = complete kill
How it was run: as §3

redroot pigweed [14] = assay: Test Example 2: soil surface treatment, upland pot test; assay type: in vivo, Amaranthus retroflexus L.; details: active ingredient 500 g/ha, observed 20th to 28th day
How it was run: as §2

crabgrass [15] = assay: as above; assay type: in vivo, Digitaria sanguinalis L.; details: active ingredient 500 g/ha, observed 20th to 28th day
How it was run: as §2

rice [16] = assay: as above; assay type: in vivo, Oryza sativa L.; details: active ingredient 500 g/ha, observed 20th to 28th day
How it was run: as §2

corn [17] = assay: Test Example 1: foliage treatment, upland pot test; assay type: in vivo, Zea mays L.; details: crop, active ingredient 500 g/ha, observed 18th to 23rd day, 0 = non-treated, 100 = complete kill
How it was run: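 In this upland pot foliage test, corn plants at 2.1 to 3.2 leaf stages were sprayed by a small size sprayer. The spray was a conventionally formulated wettable powder or emulsifiable concentrate weighed to a set active ingredient amount, diluted in water at 500 L/ha, plus 0.1% (v/v) agricultural spreader. Visual assessment on days 18 to 23 gave growth controlling degree (%), where 0 equals untreated and 100 means complete kill.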

velvetleaf [18] = assay: Test Example 2: soil surface treatment, upland pot test; assay type: in vivo, Abutilon theophrasti MEDIC.; details: active ingredient 500 g/ha, observed 20th to 28th day
How it was run: as §2

barnyardgrass [19] = assay: Test Example 1: foliage treatment, upland pot test; assay type: in vivo, Echinochloa crus-galli L.; details: active ingredient 500 g/ha, observed 18th to 23rd day, 0 = non-treated, 100 = complete kill
How it was run: as §1

| SMILES | Growth controlling degree (%) Rice (rice [1]) [%] | Growth controlling degree (%) Barnyardgrass (barnyardgrass [2]) [%] | Growth controlling degree (%) Corn (corn [3]) [%] | Growth controlling degree (%) Crabgrass (crabgrass [4]) [%] | Growth controlling degree (%) Soyabean (soybean [5]) [%] | Growth controlling degree (%) Prickly sida (prickly sida [6]) [%] | Growth controlling degree (%) Velvetleaf (velvetleaf [7]) [%] | Growth controlling degree (%) Redroot pigweed (redroot pigweed [8]) [%] | Growth controlling degree (%) Green foxtail (green foxtail [10]) [%] | Growth controlling degree (%) Soybean (soybean [11]) [%] | Growth controlling degree (%) Prickly sida (prickly sida [12]) [%] | Growth controlling degree (%) Green foxtail (green foxtail [13]) [%] | Growth controlling degree (%) Redroot pigweed (redroot pigweed [14]) [%] | Growth controlling degree (%) Crabgrass (crabgrass [15]) [%] | Growth controlling degree (%) Rice (rice [16]) [%] | Growth controlling degree (%) Corn (corn [17]) [%] | Growth controlling degree (%) Velvetleaf (velvetleaf [18]) [%] | Growth controlling degree (%) Barnyardgrass (barnyardgrass [19]) [%] | Growth controlling degree (%) Japanese bulrush (japanese bulrush; active ingredient 250 g/ha) [%] | Growth controlling degree (%) Barnyardgrass (barnyardgrass [9]; active ingredient 250 g/ha) [%] | other results |
| --- | --- | --- | --- | --- | --- | --- | --- | --- | --- | --- | --- | --- | --- | --- | --- | --- | --- | --- | --- | --- | --- |
| CC(C)C(c1cnccc1Cl)N(C)C(=O)Cc1ccc(C(F)(F)F)cc1 (centres unmarked) [I-69] | 10 | 95 | 20 | 90 | 40 | 80 | 95 | 70 | 85 | 60 | 80 | 30 | 50 | 98 | 10 | 60 | 20 | 10 | – | – | Growth controlling degree (%) Japanese bulrush (japanese bulrush; active ingredient 125 g/ha): 70%; Growth controlling degree (%) Barnyardgrass (barnyardgrass [9]; active ingredient 125 g/ha): 95%; Growth controlling degree (%) Rice (rice (var. Nihonbare); active ingredient 125 g/ha): 0%; Growth controlling degree (%) Japanese ribbon wapato (japanese ribbon wapato; active ingredient 125 g/ha): 40% |
| CC(C)C(c1cnccc1Cl)N(C)C(=O)Cc1c(F)cccc1F (centres unmarked) [I-70] | 20 | 80 | 0 | 80 | 0 | 50 | 80 | 50 | 70 | 30 | 80 | 60 | 70 | 98 | 40 | 50 | 0 | 40 | – | – | Growth controlling degree (%) Japanese bulrush (japanese bulrush; active ingredient 125 g/ha): 70%; Growth controlling degree (%) Barnyardgrass (barnyardgrass [9]; active ingredient 125 g/ha): 80%; Growth controlling degree (%) Rice (rice (var. Nihonbare); active ingredient 125 g/ha): 10%; Growth controlling degree (%) Japanese ribbon wapato (japanese ribbon wapato; active ingredient 125 g/ha): 40% |
| CC(C)C(c1cnccc1C(F)(F)F)N(C)C(=O)Cc1cc(F)ccc1F (centres unmarked) [I-85] | 40 | 100 | 10 | 90 | 40 | 100 | 90 | 70 | 100 | 80 | 80 | 85 | 90 | 100 | 10 | 60 | 80 | 80 | 98 | 100 | Growth controlling degree (%) Rice (rice (var. Nihonbare); active ingredient 250 g/ha): 0%; Growth controlling degree (%) Japanese ribbon wapato (japanese ribbon wapato; active ingredient 250 g/ha): 70% |
| CC(C)C(c1cnccc1C(F)(F)F)N(C)S(=O)(=O)c1ccccc1 (centres unmarked) [I-117, N-methyl-N-[2-methyl-1-(4-trifluoromethylpyridin-3-yl)propyl]phenylsulfonamide] | 20 | 100 | 20 | 80 | 10 | 70 | 80 | 50 | 100 | 60 | 70 | 40 | 60 | 95 | 40 | 30 | 50 | 80 | 98 | 95 | Growth controlling degree (%) Rice (rice (var. Nihonbare); active ingredient 250 g/ha): 0%; Growth controlling degree (%) Japanese ribbon wapato (japanese ribbon wapato; active ingredient 250 g/ha): 0% |
| CCC(=O)N(C)C(c1cnccc1C(F)(F)F)C(C)C (centres unmarked) [I-163] | 80 | 100 | 60 | 98 | 40 | 95 | 70 | 80 | 100 | 80 | 80 | 90 | 70 | 100 | 50 | 90 | 90 | 90 | 99 | 100 | Growth controlling degree (%) Rice (rice (var. Nihonbare); active ingredient 250 g/ha): 60%; Growth controlling degree (%) Japanese ribbon wapato (japanese ribbon wapato; active ingredient 250 g/ha): 90% |
